Measured values published in article PMC9104286, “Characterization of a Cutibacterium acnes Camp Factor 1-Related Peptide as a New TLR-2 Modulator in In Vitro and Ex Vivo Models of Inflammation” (International Journal of Molecular Sciences, 2022).

Tests used:
[1] = tested on: S. aureus; assay: Bacterial growth monitored at 620 nm; assay type: cell-based, Staphylococcus aureus; conditions: 24 h; B2 at 1 to 128 μM; antibiotics as positive control; growth at 620 nm
Excerpt: (§1) As a positive control for growth inhibition, we cultured the bacteria in the presence of the antibiotic ampicillin, doxycycline and clindamycin.
(§2) Bacterial growth was monitored at 620 nm.
(§3) We used 24 strains of C. acnes in the study: strain 6919 (Type IA1) from the American Type Culture Collection (Manassas, VA) and strains isolated from various infections (13 bone and joint infections, 1 case of pleuritis, 1 case of appendicitis, 1 case of pericarditis, 1 case of pneumonia, 3 cutaneous infections, 1 case of bacteremia and 2 ascitic fluid infections). C. acnes strains RON (IA1), TRI (IA2), LIE (IA2), CHR (IA2), GUE (IB) and PIE (IB) were isolated from patients with joint infections. All these strains were kindly provided by Dr. Philippe Morand from the Bacteriology Department at Cochin Hospital, Paris, France. C. acnes strains were grown under anaerobic conditions in liquid or solidified reinforced clostridial medium (RCM; Difco Laboratories, Detroit, MI, USA), in a GasPak™ EZ Anaerobic Container System (Becton Dickinson & Co, Franklin Lakes, NJ, USA) at 37 °C. For routine culture, 100 mL of RCM was used and the bacteria were harvested after 5 days at 37 °C, by centrifugation at 7,000 x g for 10 min and 4 °C. The pellets were pooled and washed in about 30 mL cold sterile phosphate-buffered saline (PBS) (1.5 mM KH2PO4, 2.7 mM Na2HPO4.7H2O, 0.15 M NaCl (pH 7.4)), and were then centrifuged again, as described above. The final bacterial pellet was suspended in sterile PBS (1:10 based on the volume of the culture). Staphylococcus aureus (ATCC #25923) and Staphylococcus epidermidis (ATCC #12228) were grown in tryptic soy broth (TSB) and brain heart infusion (BHI) (Sigma-Aldrich, Saint-Louis, MO, USA) under aerobic conditions at 37 °C.

[2] = tested on: C. acnes 6919; assay: Bacterial growth monitored at 620 nm; assay type: cell-based, Cutibacterium acnes; conditions: C. acnes 6919, 5 days; B2 at 1 to 128 μM; antibiotics as positive control; growth at 620 nm
Excerpt: as §1, §2, §3

[3] = tested on: S. epidermidis; assay: Bacterial growth monitored at 620 nm; assay type: cell-based, Staphylococcus epidermidis; conditions: 24 h; B2 at 1 to 128 μM; antibiotics as positive control; growth at 620 nm
Excerpt: as §1, §2, §3

[4] = tested on: human skin explants; assay: Ex vivo human skin explants, induction of proinflammatory molecules by stimuli; assay type: cell-based; conditions: skin explants stimulated 18 h, LPS or PGN 5 µg/ml, Luminex, culture supernatant, mean ± SEM, n = 6

| Compound | effect on growth of S. aureus (in words) [1] | effect on growth of C. acnes (in words) [2] | effect on growth of S. epidermidis (in words) [3] | GM-CSF levels [4] [pg/mL] | IL-1β levels [4] [pg/mL] | IL-10 production [4] [pg/mL] | TNF-α production [4] [pg/mL] |
| --- | --- | --- | --- | --- | --- | --- | --- |
| CC1(C)S[C@@H]2[C@H](NC(=O)[C@H](N)c3ccccc3)C(=O)N2[C@H]1C(=O)O [ampicillin] | susceptible | susceptible | resistant |  |  |  |  |
| CCC[C@@H]1C[C@@H](C(=O)N[C@@H]([C@H]2O[C@H](SC)[C@H](O)[C@@H](O)[C@H]2O)[C@H](C)Cl)N(C)C1 [clindamycin] | susceptible | susceptible | susceptible |  |  |  |  |
| C[C@H]1c2cccc(O)c2C(=O)C2=C(O)[C@]3(O)C(=O)C(C(N)=O)=C(O)[C@@H](N(C)C)[C@@H]3[C@@H](O)[C@@H]21 [doxycycline] | susceptible | susceptible | susceptible |  |  |  |  |
| lipopolysaccharide [LPS] |  |  |  | 765 ± 30 | 392 ± 5.6 | 10 ± 0.3 | 22 ± 1.7 |
| peptidoglycan [PGN] |  |  |  | 4733 ± 218 | 23 ± 0.8 | 35 ± 1.4 | 126 ± 9.3 |
